Assay results published in article PMC12384620, “Hit-to-Lead Studies of Pyrazinylpiperazines against Visceral Leishmaniasis: Pharmacokinetic Profile and In Vivo Efficacy of Potent Compounds against Leishmania infantum” (ACS Pharmacology & Translational Science, 2025).

Legend:
L. infantum = experiment: Antileishmanial activity against L. infantum amastigotes in THP-1 macrophages; format: cell-based; settings: Leishmania infantum; growth of L. infantum in THP-1 macrophages, 72 h
Experimental: The in vitro anti-L. infantum activity (IC50) of each compound was evaluated on THP-1 cells (human leukemia monocytic cell line) infected with L. infantum promastigotes, and the in vitro cytotoxicity (CC50) was determined over the THP-1 cell line. The selectivity index (SI) was calculated as the ratio of the CC50 value determined in the cytotoxicity assay, divided by the IC50 value determined in the antileishmanial activity assay.
Cells derived from the human monocytic strain THP-1 were cultured in complete Rowell Park Memorial Institute (RPMI)-1640 medium (supplemented with 10% fetal bovine serum, 100 U/mL penicillin, and 100 μg/mL streptomycin). Monocytes were differentiated into macrophages by the addition of 20 ng/mL phorbol myristate acetate (PMA). After 72 h, the macrophages (5 × 10^4), in black 96-well microtiter plates (Corning Incorporated, Corning, NY), were infected with Leishmania (Leishmania) infantum (MHOM/BR/1974/PP75) promastigotes transfected with gene tdTomato, on the second day of the stationary phase (20 parasites per macrophage) for 4 h. […] The IC50 values were determined by nonlinear regression using a variable slope model (log(concentration) vs growth inhibition) with the GraphPadPrism v8.2.0 (CA, USA) software. Controls with uninfected cells, untreated infected cells, and infected cells treated with amphotericin B at 0.25 μM (positive control) or DMSO 1% were used. Quadruplicates were run on the same plate, and the experiments were repeated at least once.

L. braziliensis = experiment: Inhibition of growth of L. braziliensis in THP-1 macrophages; format: cell-based; settings: Leishmania braziliensis
Description: 1 In Vitro Antileishmanial Potency, Selectivity Index, and ADME Properties of Compounds 1 – 6 | column: L. braziliensis IC50 (μM)^b (SI)^b

[1] = PAMPA gastrointestinal tract permeability; format: in vitro ADME; settings: for Papp at 8 h, 0.5 mM: PAMPA-GI, read-out: GI Pe
Experimental: A 10 mM solution of each compound in DMSO was prepared and subsequently homogenized in a 5 mL flask with 4.75 mL PBS (pH 6.6) (10 mM). […] 180 μL of a PBS (pH 7.4)/DMSO (95:5) solution were then added to the wells of a 96-well receiver plate, and 5 μL of a L-α-phosphatidylcholine solution (20 mg/mL in dodecane) to the wells of a 96-well donor plate. After 5 min, 180 μL of the solutions containing each compound were added to the wells of the donor plate, in triplicate, and the donor plate was carefully placed over the receiver plate in a “sandwich-like” system, which was left stirring (50 rpm) for 8 h at rt in a sealed vessel containing 10 mL PBS (pH 7.4). Afterward, the donor plate was removed, and the content of the receiver plate was transferred to a UV reading plate, which was read using a microplate reader (SpectraMax 5 – Molecular Devices). A reference sample for the internal correction of the microplate reader was prepared using 180 μL of the PBS (pH 7.4)/DMSO (95:5) solution (adapted from refs and ). The optical density values obtained from the content of the receiver plate were compared with the ones obtained from readings performed with the initial solutions containing each compound, before their addition to the donor plate. […] The optical density values from the receptor plate were compared to those from experimental controls to determine the F a value for each compound, using Microsoft Excel.

[2] = PAMPA blood-brain barrier permeability; format: in vitro ADME; settings: for BBB permeation class: PAMPA-BBB classification; for Papp at 0.2 mg/mL: PAMPA-BBB, pH 7.4, read-out: BBB Pe
Experimental: One mg of each compound was solubilized in ethanol (1 mL) in a 5 mL flask, and an additional 500 μL ethanol and 3.5 mL PBS buffer (pH 7.4) were added to this solution. […] 180 μL of a PBS (pH 7.4)/ethanol (70:30) solution were then added to the wells of a 96-well receiver plate, and 5 μL of a porcine brain lipid solution (20 mg/mL in dodecane) to the wells of a 96-well donor plate. […] Afterward, the donor plate was removed, and the content of the receiver plate was transferred to a UV reading plate, which was read using a microplate reader (SpectraMax 5 – Molecular Devices). A reference sample for the internal correction of the microplate reader was prepared using 180 μL of the PBS (pH 7.4)/ethanol (70:30) solution (adapted from ref ). The optical density values obtained from the content of the receiver plate were compared with the ones obtained from readings performed with the initial solutions containing each compound, before their addition to the donor plate. […] The optical density values for the experimental controls were used to determine the equation of the linear regression (optical density vs P e ), which allowed the determination of the P e value of each compound from the optical density values obtained from the receiver plate, using an in-house Microsoft Excel spreadsheet.

[3] = Metabolic stability in mouse liver microsomes; format: in vitro ADME; settings: pH 7.4, MLM, with NADPH cofactor; for microsomal CLint at 5 μM: read-out: Clint, intrinsic clearance; for half-life at 5 μM: read-out: t1/2, microsomal half-life
Experimental: To a microcentrifuge tube was added 1 mg/mL Mouse Liver Microsome (MLM), a NADPH generating system consisting of 1 mM NADP+, 1.5 mM MgCl2, 3.5 mM glucose-6-phosphate and 0.5 U/mL glucose-6-phosphate dehydrogenase, and phosphate buffer (pH 7.4) in a sufficient amount for a total volume of […]. After a 15 min preincubation at 37 °C in a water bath, the enzymatic reactions were started by adding 2 μL of a […] stock solution of each compound to be assessed, reaching a final concentration of 5 μM in the tested compound. , The samples were further incubated at 37 °C under stirring (30 rpm) for predetermined periods (0, 15, 30, 45, and 60 min), and 500 μL chilled MeOH and 500 μL chilled acetonitrile were added before the samples were homogenized and left standing in an ice bath to accelerate protein precipitation. The resulting mixture was centrifugated at 13000 rpm for 15 min at 4 °C, the organic layer was extracted and 2 μL internal standard (clonazepam 5 μM) was added. Finally, the samples were filtered through a PVDF filter (Millex 0.22 μm x 13 mm) and analyzed by HPLC-PDA. ,

[4] = system: L. infantum promastigotes; experiment: Flow cytometric cell cycle analysis (PI); format: cell-based, Leishmania infantum; settings: 24 h, 0.5x, 1x, 2x IC50, PI
Experimental: Then, the cells were collected, washed twice with 1 × PBS, and fixed in 70% ethanol at 4 °C for 24 h. The fixed parasites were then washed with 1 × PBS and the pellet was treated with 500 μL of RNase A (20 mg/mL) and incubated at 37 °C for 1 h. Subsequently, the parasites were stained with 10 μg/mL propidium iodide (PI) in the dark for 20 min. Cell cycle distribution, determining the percentage of cells in G0, G1, S, and G2/M phases, was analyzed using an Accuri C5 BD flow cytometer. The histograms presented are representative of results obtained from three independent experiments.

[5] = system: L. infantum::tdTomato intracellular amastigotes; experiment: Synergism between 2 and Sb^III against intracellular L. infantum amastigotes; format: cell-based, Leishmania infantum; settings: compounds tested separately, 72 h; read-out: IC50 against intracellular amastigotes of L. infantum
Experimental: Cells derived from the human monocytic strain THP-1 were cultured in complete Rowell Park Memorial Institute (RPMI)-1640 medium (supplemented with 10% fetal bovine serum, 100 U/mL penicillin, and 100 μg/mL streptomycin). Monocytes were differentiated into macrophages by the addition of 20 ng/mL phorbol myristate acetate (PMA). After 72 h, the macrophages (5 × 10^4), in black 96-well microtiter plates (Corning Incorporated, Corning, NY), were infected with Leishmania (Leishmania) infantum (MHOM/BR/1974/PP75) promastigotes expressing red fluorescence protein on the second day of the stationary phase (20 parasites per macrophage) for 4 h. […] To investigate the possibility of synergism between Sb^III and compound 2, […] different concentrations of these drugs were used (1.0, 0.5, 0.2, 0.1, and 0.05 μg/mL), the solutions of Sb^III and 2 being prepared and diluted the day of the assay. The compounds were tested separately and in combination. […] The EC50 values were determined by nonlinear regression using a Variable slope model (log(concentration) vs growth inhibition) with the GraphPadPrism v8.2.0 (CA, USA) software. By normalizing the data as a fractional response, it was possible to perform the calculation using a Bayesian model. The results were compared to each other to determine whether the combination of compounds has a synergistic, antagonistic or additive effect. Controls with uninfected cells, untreated infected cells, infected cells treated with amphotericin B at 0.25 μM (positive control) or DMSO 1% were used. Quadruplicates were run on the same plate, and the experiments were repeated at least once.

L. infantum::tdTomato = format: in vivo, mouse; settings: 500 mg/kg/day i.p., 10 days
Experimental: BALB/c mice (male, 6 to 8 weeks old, 18 to 20 g) were inoculated intravenously (tail vein) with 2 × 10^7 late-log-phase L. infantum promastigotes from Li::tdTomato lines, and randomly assigned into one of the four treatment groups (six mice per group). After 7 days of infection, […] was administered intraperitoneally in a single dose 500 mg/kg/day meglumine antimoniate (Glucantime, Sanofi Medley), both groups treated with 2 received two daily intraperitoneal injections totaling either 50 mg/kg/day or 100 mg/kg/day of 2, and the control group was administered the vehicle solution. For the intraperitoneal injection, 2 was formulated as follows: a stock solution of 2 in DMSO (100 mg/mL) was prepared daily, and a solution of 70% PBS1X, 20% PEG 400 (Polyethylene Glycol 400, Sigma-Aldrich), 0.16% Tween 80 and 10% of 2 (from the stock solution) was prepared. The control group was also administered this solution, replacing 2 with 10% DMSO. All mice were euthanized 3 days after the end of the treatment, and the liver and spleen of each animal were collected.
The number of viable parasites in each organ was determined using a quantitative limiting dilution assay. Briefly, the organs were macerated using an Ultra-Turrax disperser (IKA-Werke GmbH & Co. KG., Staufen, Germany), and a tissue homogenate was obtained with 1 mL of M199 medium. Each tissue homogenate was sequentially diluted (10-fold) in 96-well flat-bottom microtiter black plates and incubated at 26 °C for 10 days. The wells containing motile promastigotes were identified with an inverted microscope (Axiovert 25, Zeiss), and the parasite burden was determined from the highest dilution at which promastigotes had grown after 10 days of incubation.

| Compound | IC50 (L. infantum) | IC50 (L. braziliensis) | Fa, fraction absorbed (GI) [1] | BBB permeation class [2] | Papp at 0.2 mg/mL [2] | microsomal CLint at 5 μM [3] | half-life at 5 μM [3] | Papp at 8 h, 0.5 mM [1] | effect on cell cycle progression [4] | IC50 [5] | parasite burden in spleen and liver (L. infantum::tdTomato) |
| --- | --- | --- | --- | --- | --- | --- | --- | --- | --- | --- | --- |
| C[C@@H]1[C@H](O)[C@@H](C)/C=C/C=C/C=C/C=C/C=C/C=C/C=C/[C@H](O[C@@H]2O[C@H](C)[C@@H](O)[C@H](N)[C@@H]2O)C[C@@H]2O[C@](O)(C[C@@H](O)C[C@@H](O)[C@H](O)CC[C@@H](O)C[C@@H](O)CC(=O)O[C@H]1C)C[C@H](O)[C@H]2C(=O)O [AmB, Amphotericin B, reference compound] | 300 nM | 100 nM | – | – | – | – | – | – | – | – | – |
| CC(C)NCC(O)COc1ccc(CC(N)=O)cc1 (stereo not drawn) [Atenolol, reference compound] | – | – | 1.70% | – | – | – | – | – | – | – | – |
| COc1ccc(C(=O)N2CCN(c3cnccn3)CC2)cc1 [Compound 3, (4-Methoxyphenyl)(4-(pyrazin-2-yl)piperazin-1-yl)methanone] | 4500 ± 700 nM | 10100 ± 2800 nM | 99.90% | CNS± (CNS±: uncertain BBB permeation, 2.0 < P e (10^–6 cm/s) < 4.0) | 2.21 ×10⁻⁶ cm/s | 0.925 µL/min/mg | 3.12 h | 18.2 ×10⁻⁶ cm/s | – | – | – |
| Nc1ccc(C(=O)N2CCN(c3cnccn3)CC2)cn1 [Compound 4, (6-Aminopyridin-3-yl)(4-(pyrazin-2-yl)piperazin-1-yl)methanone] | 5100 ± 2100 nM | 11900 ± 1100 nM | 99.91% | – | 1.02 ×10⁻⁶ cm/s | 0.675 µL/min/mg | 4.28 h | 18.4 ×10⁻⁶ cm/s | – | – | – |
| O=C(c1ccc2cc(O)ccc2c1)N1CCN(c2cnccn2)CC1 [Compound 5, (6-Hydroxynaphthalen-2-yl)(4-(pyrazin-2-yl)piperazin-1-yl)methanone] | 3300 ± 2700 nM | 2600 ± 200 nM | 45.70% | – | 0.96 ×10⁻⁶ cm/s | 0.8 µL/min/mg | 3.61 h | 1.61 ×10⁻⁶ cm/s | – | – | – |
| O=C(c1cccc(O)c1O)N1CCN(c2cnccn2)CC1 [Compound 6, (2,3-Dihydroxyphenyl)(4-(pyrazin-2-yl)piperazin-1-yl)methanone] | 2800 ± 1100 nM | 200 ± 200 nM | 86.26% | CNS+ (CNS+: high BBB permeation, P e (10^–6 cm/s) > 4.0) | 4.51 ×10⁻⁶ cm/s | 4.2 µL/min/mg | 0.688 h | 5.22 ×10⁻⁶ cm/s | – | – | – |
| CCCCCCCCCCCCCCCCOP(=O)([O-])OCC[N+](C)(C)C [Miltefosine, miltefosine, reference compound] | – | – | – | – | – | – | – | – | same pattern of cell cycle arrest | – | – |
| [Sb+3] [Sb^III, reference compound] | – | – | – | – | – | – | – | – | – | 2400 ± 470 nM | – |
| meglumine antimoniate [reference compound] | – | – | – | – | – | – | – | – | – | – | almost completely eradicated |
